Assay results from PMC6630718, “Discovery of Novel UV-Filters with Favorable Safety Profiles in the 5-Arylideneimidazolidine-2,4-dione Derivatives Group” (Molecules, 2019).
Where two headings read alike, the source gives them in different places.

Key:
[1] = In vitro stability in mouse liver microsomes; format: in vitro ADME; settings: for ester hydrolysis in the presence of microsomes: independently of the presence of a NADPH-regenerating system; for Probable Transformation / half-life at 20 µM / microsomal CLint at 20 µM: mouse liver microsomes; for half-life at 20 µM / microsomal CLint at 20 µM: mouse; for half-life at 20 µM: pH 7.4, mouse liver microsomes 0.8 mg/mL, 20 µM compound, NADPH-regenerating system, 37 °C, read-out: t ½; for microsomal CLint at 20 µM: pH 7.4, mouse liver microsomes, calculated from t1/2
Procedure, shortened: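 Compound (20 µM) with mouse liver microsomes (0.8 mg/mL), potassium phosphate pH 7.4, NADPH-regenerating system, 37 °C for 15–60 min; parent remaining by UPLC/MS, two repeats. t1/2 from ln % remaining versus time; Clint = (incubation volume/protein) × 0.693/t1/2.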

[2] = Ames MPF Penta 2 microplate mutagenicity assay, TA98; format: cell-based; settings: Salmonella typhimurium, read-out: FIB (fold induction over baseline)
Protocol: The assay is a liquid microplate modification of the traditional Salmonella test. During the procedure, bacteria are exposed to different concentrations of a test compound for 90 min in a medium containing sufficient histidine (S. typhimurium) or tryptophan (E. coli) to support cell divisions. Then, the cultures are diluted in pH indicator medium lacking histidine or tryptophan and aliquoted into 48 wells of a 384-well plate. Within 48 hours, cells that have undergone reversion to amino acid prototrophy will grow into colonies. Bacterial metabolism reduces pH of the medium, changing the color of that well from purple to yellow (https://www.xenometrix.ch).
The following strains were used in the study: S. typhimurium TA98, TA100, TA1535, TA1537 and E. coli wp2 uvrA[pKM101]. TA100, TA1535 and E. coli strains are used for the detection of base substitution mutations, whereas TA98 and TA1537 are utilized for the detection of frameshift mutations. S. typhimurium strains have GC base pairs, whereas E. coli strain has AT base pair at their primary reversion site and detect certain oxidizing mutagens, cross-linking agents and hydrazines.
The test procedure provided by Xenometrix (https://www.xenometrix.ch) and described earlier was followed. Briefly, the bacterial strains were grown overnight in exposure medium and exposed to test compounds 4g and 3b in 24-well plates for 90 min at 37 °C with agitation in the absence (–S9) or presence (+S9) of 4.5% phenobarbital/ β-naphthoflavone-induced rat liver S9. Compounds 4g and 3b were dissolved in DMSO and tested at final concentrations of 0.1, 0.2 and 0.5 mM. After the preincubation, the cultures were diluted in the indicator medium and the contents of each 24-well culture were distributed into 48 wells on a 384-well plate and incubated further for 48 h at 37 °C without agitation. After the exposure, the number of wells containing bacteria was scored by eye for yellow wells. Positive and negative controls were included in the assay, and all doses were done in triplicate.
Pure DMSO was used as the negative control.
The fold increase of revertants relative to the solvent control was determined by dividing the mean number of positive wells at each dose by the solvent control at baseline. The solvent control at baseline was defined as the mean number of positive wells in the solvent control plus one standard deviation (SD). When an increase of more than 2-fold relative to the baseline at more than one dose with a dose–response is observed the sample is classified as positive, whereas when no response >2 times the baseline and no dose–response is stated the sample is negative.

[3] = In vitro photoprotection study of 2% (w/w) macrogol formulations on PMMA plates; settings: for UVA PF / UVA/UVB Ratio / λc (critical wavelength): 2% (w/w) macrogol formulation F1 (Triacetin 4.8%); for SPFin vitro: 2% (w/w) macrogol formulation F1 (Tween 20, PEG-400, PEG-1500, Triacetin 4.8%)
Procedure, shortened: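 Compounds at 2% in macrogol (PEG-400/PEG-1500) formulations, predissolved in triacetin:Tween 20 (1:9) or DMSO; 32.5 mg applied to 25 cm² PMMA plates (5 µm roughness), glycerin-treated plate as reference. Per EN ISO 24443:2012, modified: reflectance absorbance 290–400 nm in 1 nm steps, averaged over 12 scans.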

[4] = S. typhimurium TA98 without S9 (–S9), TA98, –S9, 0.1 mM
[5] = S. typhimurium TA98 without S9 (–S9), TA98, –S9, 0.2 mM
[6] = S. typhimurium TA98 without S9 (–S9), TA98, –S9, 0.5 mM

Row | SMILES | ester hydrolysis in the presence of microsomes [1] | Probable Transformation [1] | half-life at 20 µM [1] | microsomal CLint at 20 µM [1] | fold induction at 90 min, 0.1 mM [2, 4] | fold induction at 90 min, 0.2 mM [2, 5] | fold induction at 90 min, 0.5 mM [2, 6] | fold induction at 90 min, 0.1 mM ([2]; TA98, +S9, 0.1 mM) | fold induction at 90 min, 0.2 mM ([2]; TA98, +S9, 0.2 mM) | fold induction at 90 min, 0.5 mM ([2]; TA98, +S9, 0.5 mM) | UVA PF [3] | UVA/UVB Ratio [3] | λc (critical wavelength) [3] | SPFin vitro [3]
1 | CCOC(=O)CN1C(=O)/C(=C/C=C/c2ccc(OC)cc2)N(CC(=O)OCC)C1=O [Compound 4g, Diethyl 2,2′-((Z)-4-((E)-3-(4-methoxyphenyl)allylidene)-2,5-dioxoimidazolidine-1,3-diyl)diacetate] | hydrolysed to monoesters | hydrolysis O-dealkylation | 3 min | > 300 µL/min/mg | 0.5 | 0.9 | 0.2 | 0.3 | 0.4 | 0.6 | 6.83 ± 0.05 | 4.50 ± 0.32 | 391 nm | 1.68 ± 0.04
2 | CCOC(=O)CN1C(=O)/C(=C/c2ccc(OC)cc2)N(CC(=O)OCC)C1=O [Compound 3b, Diethyl 2,2′-((Z)-4-(4-methoxybenzylidene)-2,5-dioxoimidazolidine-1,3-diyl)diacetate] | hydrolysed to monoesters | hydrolysis O-dealkylation | 12 min | 75 µL/min/mg | 0.9 | 0.2 | 0.9 | 0.2 | 0.4 | 0.3 | 2.59 ± 0.23 | 0.84 ± 0.08 | 366 nm | 3.07 ± 0.04
